Reference: PubChem BioAssay AID256 (DTP/NCI, 2004)
Where “and” joins values, the source holds several entries; their conditions need not be identical. Equal entries are not always repeated. Inconclusive results and toxic doses are left out. Non-standard residues stand in square brackets, D forms with d. Residues, ends and D or L forms follow the SMILES beside them. ξ: configuration not given here. *: point of attachment. ξF = NC(Cc1ccccc1)C(=O)O; Cbz = O=C(OCc1ccccc1)*; OBn = c1ccc(CO*)cc1

Tested on: CD2F1 mice, L1210 leukemia ip, survival T/C
Experiment: NCI In Vivo Anticancer Drug Screen. Data for tumor model L1210 Leukemia (intraperitoneal) in CD2F1 (CDF1) mice
Conditions: endpoint: mean survival time, higher = longer survival
Method in brief: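 Mice carrying a transplanted tumor received test compound or vehicle alone. The value is the measurement in the treated group divided by that in the vehicle-treated control group.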

[1] = dose: 12.5 mg/kg/injection, schedule: Q01DX009 (ip), vehicle: water
[2] = dose: 5.0 mg/kg/injection, schedule: Q01DX001 (ip), vehicle: saline
[3] = dose: 10.0 mg/kg/injection, schedule: Q01DX001 (ip), vehicle: saline
[4] = dose: 20.0 mg/kg/injection, schedule: Q01DX001 (ip), vehicle: saline
[5] = dose: 25.0 mg/kg/injection, schedule: Q01DX009 (ip), vehicle: saline with Tween-80
[6] = dose: 50.0 mg/kg/injection, schedule: Q01DX009 (ip), vehicle: saline with Tween-80
[7] = dose: 100.0 mg/kg/injection, schedule: Q01DX001 (ip), vehicle: saline with Tween-80
[8] = dose: 200.0 mg/kg/injection, schedule: Q01DX001 (ip), vehicle: saline with Tween-80
[9] = dose: 400.0 mg/kg/injection, schedule: Q01DX001 (ip), vehicle: saline with Tween-80
[10] = dose: 100.0 mg/kg/injection, schedule: Q01DX001 (ip), vehicle: saline
[11] = dose: 200.0 mg/kg/injection, schedule: Q01DX001 (ip), vehicle: saline
[12] = dose: 400.0 mg/kg/injection, schedule: Q01DX001 (ip), vehicle: saline
[13] = dose: 100.0 mg/kg/injection, schedule: Q04DX003 (ip), vehicle: saline with Tween-80
[14] = dose: 200.0 mg/kg/injection, schedule: Q04DX003 (ip), vehicle: saline with Tween-80
[15] = dose: 100.0 mg/kg/injection, schedule: Q01DX009 (ip), vehicle: saline with Tween-80
[16] = dose: 200.0 mg/kg/injection, schedule: Q01DX009 (ip), vehicle: saline with Tween-80
[17] = dose: 100.0 mg/kg/injection, schedule: Q04DX003 (ip), vehicle: saline
[18] = dose: 400.0 mg/kg/injection, schedule: Q04DX003 (ip), vehicle: saline with Tween-80
[19] = dose: 400.0 mg/kg/injection, schedule: Q01DX009 (ip), vehicle: saline with Tween-80

NC(=O)CC(N)C(=O)O.[Cl-].[Cl-].[Cl-].[Cl-].[Pt+2] (stereo not drawn)
T/C (dose: 0.78 mg/kg/injection, schedule: Q01DX009 (ip), vehicle: water): 101 % of control
T/C (dose: 1.56 mg/kg/injection, schedule: Q01DX009 (ip), vehicle: water): 95 % of control
T/C (dose: 3.13 mg/kg/injection, schedule: Q01DX009 (ip), vehicle: water): 98 % of control
T/C (dose: 6.25 mg/kg/injection, schedule: Q01DX009 (ip), vehicle: water): 90 % of control
T/C [1]: 101 % of control

O=CO.[Co]
T/C [2]: 106 % of control
T/C [3]: 103 % of control
T/C [4]: 106 % of control
T/C (dose: 40.0 mg/kg/injection, schedule: Q01DX001 (ip), vehicle: saline): 100 % of control

CC(=O)n1cc(F)c(=O)[nH]c1=O
T/C (dose: 16.5 mg/kg/injection, schedule: Q01DX009 (ip), vehicle: saline): 172 % of control
T/C [5]: 169 % of control
T/C [6]: 105 % of control

O=P(OCc1ccccc1)(N(CCCl)CCCl)N1CCCC1 (stereo not drawn)
T/C (dose: 128.0 mg/kg/injection, schedule: Q01DX Z (ip), vehicle: saline): 101 % of control

OC1CCSc2ccc3ccccc3c21 (stereo not drawn)
T/C [7]: 108 % of control
T/C [8]: 105 % of control
T/C [9]: 103 % of control

CC(C)(C)c1cc(O)c(O)c(C(C)(C)C)c1
T/C (dose: 100.0 mg/kg/injection, schedule: Q04DX003 (ip), vehicle: other): 101 % of control
T/C (dose: 200.0 mg/kg/injection, schedule: Q04DX003 (ip), vehicle: other): 95 % of control

N#CC12CCCC(=O)N1C=Cc1ccccc12 (stereo not drawn)
T/C [10]: 107 % of control
T/C [11]: 100 % of control
T/C [12]: 97 % of control

CC(C#N)(Cc1ccccc1)Nc1ccccc1 (stereo not drawn)
T/C [13]: 97 % of control
T/C [14]: 91 % of control

COc1c(NC(C)=O)cc2c(c1C)OC(C)(C)C=C2
T/C [15]: 101 % of control
T/C [16]: 98 % of control

O=C(O)/C(=C\c1ccc(Br)cc1)c1ccc(C(F)(F)F)cc1[N+](=O)[O-]
T/C (dose: 75.0 mg/kg/injection, schedule: Q04DX003 (ip), vehicle: saline): 89 % of control
T/C (dose: 150.0 mg/kg/injection, schedule: Q04DX003 (ip), vehicle: saline): 101 % of control
T/C (dose: 300.0 mg/kg/injection, schedule: Q04DX003 (ip), vehicle: saline): 100 % of control

C[Si](C)c1cccc(Cl)c1
T/C [15]: 104 % of control
T/C [16]: 100 % of control

Cc1cc(C)c(C)c(S(=O)(=O)O)c1C
T/C [6]: 102 % of control
T/C [15]: 102 % of control
T/C [13]: 101 % of control
T/C [14]: 89 % of control

O=C(CCl)c1cnc2ccccc2n1
T/C [2]: 91 % of control
T/C [3]: 94 % of control
T/C [4]: 95 % of control

CCC1(c2ccc(O)cc2)C(=O)NC(=O)NC1=O
T/C [10]: 96 % of control
T/C [11]: 89 % of control
T/C [12]: 96 % of control

Oc1ccccc1C=NCC[N-]CCN=Cc1ccccc1O.[Co]
T/C (dose: 12.5 mg/kg/injection, schedule: Q01DX009 (ip), vehicle: saline): 115 % of control
T/C (dose: 12.5 mg/kg/injection, schedule: Q04DX003 (ip), vehicle: saline): 107 % of control
T/C (dose: 25.0 mg/kg/injection, schedule: Q01DX009 (ip), vehicle: saline): 103 % of control
T/C (dose: 25.0 mg/kg/injection, schedule: Q04DX003 (ip), vehicle: saline): 100 % of control
T/C (dose: 50.0 mg/kg/injection, schedule: Q01DX009 (ip), vehicle: saline): 97 % of control
T/C (dose: 50.0 mg/kg/injection, schedule: Q04DX003 (ip), vehicle: saline): 103 % of control
T/C [17]: 107 % of control

CCOC(=O)C1C(=O)N(C)C(=O)N1c1ccccc1 (stereo not drawn)
T/C (dose: 12.5 mg/kg/injection, schedule: Q01DX009 (ip), vehicle: other): 98 % of control
T/C (dose: 25.0 mg/kg/injection, schedule: Q01DX009 (ip), vehicle: other): 90 % of control
T/C (dose: 50.0 mg/kg/injection, schedule: Q01DX009 (ip), vehicle: other): 87 % of control
T/C (dose: 100.0 mg/kg/injection, schedule: Q01DX009 (ip), vehicle: other): 93 % of control
T/C (dose: 200.0 mg/kg/injection, schedule: Q01DX009 (ip), vehicle: other): 87 % of control

CCOC(=O)/C(C#N)=C\c1cc(OC)ccc1OC
T/C [5]: 102 % of control
T/C [6]: 94 % of control
T/C [15]: 104 % of control

CCC1(CC)OC2=C(CC(C#N)(C#N)C(C#N)(C#N)C2)O1
T/C (dose: 5.0 mg/kg/injection, schedule: Q04DX003 (ip), vehicle: other): 103 % of control
T/C (dose: 10.0 mg/kg/injection, schedule: Q04DX003 (ip), vehicle: other): 92 % of control
T/C (dose: 20.0 mg/kg/injection, schedule: Q04DX003 (ip), vehicle: other): 96 % of control

Cc1cccc(CN(C)C)n1
T/C (dose: 100.0 mg/kg/injection, schedule: Q04DX002 (ip), vehicle: saline): 105 % of control

O=C(NCCI)NC1C(O)OC(CO)C(O)C1O (stereo not drawn)
T/C [1]: 93 % of control
T/C (dose: 25.0 mg/kg/injection, schedule: Q01DX009 (ip), vehicle: water): 92 % of control
T/C (dose: 50.0 mg/kg/injection, schedule: Q01DX009 (ip), vehicle: water): 93 % of control
T/C (dose: 100.0 mg/kg/injection, schedule: Q01DX009 (ip), vehicle: water): 95 % of control
T/C (dose: 200.0 mg/kg/injection, schedule: Q01DX009 (ip), vehicle: water): 89 % of control

COC(=O)CCC(C)(c1ccc(O)cc1)c1ccc(O)cc1
T/C [13]: 103 % of control
T/C [14]: 97 % of control
T/C [18]: 91 % of control

C/C=C1/C(=O)Oc2ccccc21
T/C [6]: 101 % of control
T/C [15]: 101 % of control
T/C [16]: 106 % of control

O=C(/C=C/c1ccccc1)NC(=S)NCc1ccccc1Cl
T/C [6]: 95 % of control and 96 % of control
T/C [7]: 94 % of control
T/C (dose: 100.0 mg/kg/injection, schedule: Q04DX002 (ip), vehicle: saline with Tween-80): 95 % of control and 110 % of control
T/C [8]: 92 % of control
T/C (dose: 200.0 mg/kg/injection, schedule: Q04DX002 (ip), vehicle: saline with Tween-80): 90 % of control and 95 % of control
T/C [9]: 95 % of control
T/C (dose: 400.0 mg/kg/injection, schedule: Q04DX002 (ip), vehicle: saline with Tween-80): 98 % of control and 101 % of control

COP(=O)(O)c1ccccc1 (tested in a mixture with another compound)
T/C [17]: 103 % of control
T/C (dose: 200.0 mg/kg/injection, schedule: Q04DX003 (ip), vehicle: saline): 106 % of control
T/C (dose: 400.0 mg/kg/injection, schedule: Q04DX003 (ip), vehicle: saline): 95 % of control

CCOC(=O)CCC(NC(=O)c1ccc(N(Cc2ccccc2)Cc2cnc3nc(N)nc(N)c3n2)cc1)C(=O)OCC (stereo not drawn)
T/C (dose: 100.0 mg/kg/injection, schedule: Q01DX001 (ip), vehicle: Klucel (hydroxypropylcellulose) (HPC)): 87 % of control
T/C (dose: 200.0 mg/kg/injection, schedule: Q01DX001 (ip), vehicle: Klucel (hydroxypropylcellulose) (HPC)): 94 % of control
T/C (dose: 400.0 mg/kg/injection, schedule: Q01DX001 (ip), vehicle: Klucel (hydroxypropylcellulose) (HPC)): 97 % of control

O=C(O)C1=CCC=CC1
T/C [15]: 104 % of control
T/C [16]: 97 % of control
T/C [19]: 106 % of control

COc1cc2c(cc1OC)C13CCN4CC5=CCOC(CC(=O)O)C(C5CC41)C3N2 (stereo not drawn)
T/C (dose: 75.0 mg/kg/injection, schedule: Q01DX001 (ip), vehicle: other): 98 % of control
T/C (dose: 75.0 mg/kg/injection, schedule: Q01DX001 (ip), vehicle: saline): 101 % of control
T/C (dose: 150.0 mg/kg/injection, schedule: Q01DX001 (ip), vehicle: saline): 97 % of control

COc1ccc(CCC(=O)O)cc1OC
T/C [15]: 96 % of control
T/C [13]: 98 % of control
T/C [16]: 97 % of control
T/C [14]: 96 % of control
T/C [19]: 92 % of control
T/C [18]: 104 % of control

O=C(CNC(=O)OCc1ccccc1)NCC(=O)NC(Cc1ccccc1)C(=O)OCc1ccccc1 (stereo not drawn) (Cbz-Gly-Gly-[ξF]-OBn)
T/C [13]: 97 % of control
T/C [14]: 103 % of control
T/C [18]: 99 % of control
